Values joined by “and” are separate entries in the source; they are usually repeats but may differ in a detail not shown here. Equal entries are not always repeated. “Also recorded” adds a separate entry of the source. Where two headings read alike, the source gives them in different places.
Columns and labels:
muscarinic M1 receptor = molecular target: T1, muscarinic M1 receptor (Rattus norvegicus, UniProt P08482); assay: [3H]Pirenzepine binding assay; conditions: for Binding selectivity M1/DAT: Ki ratio
T1 construct: Membranes from frozen rat brains excluding cerebellum were thawed in ice-cold buffer; from tissue; host or cells: frozen rat brain (excluding cerebellum) membranes
T1 sequence (P08482 1-460): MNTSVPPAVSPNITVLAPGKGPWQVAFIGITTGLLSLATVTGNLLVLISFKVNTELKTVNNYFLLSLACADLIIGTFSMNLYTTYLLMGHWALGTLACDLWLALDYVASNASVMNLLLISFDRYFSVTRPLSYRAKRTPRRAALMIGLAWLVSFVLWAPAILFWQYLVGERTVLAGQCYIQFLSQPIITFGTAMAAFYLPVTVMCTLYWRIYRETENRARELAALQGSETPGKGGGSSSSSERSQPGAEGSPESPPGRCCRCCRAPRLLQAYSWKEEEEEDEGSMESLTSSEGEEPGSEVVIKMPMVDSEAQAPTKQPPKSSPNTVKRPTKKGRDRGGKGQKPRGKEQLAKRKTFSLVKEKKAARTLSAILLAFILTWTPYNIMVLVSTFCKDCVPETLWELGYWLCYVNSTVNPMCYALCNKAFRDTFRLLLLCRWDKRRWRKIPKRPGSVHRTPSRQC
Description: In order to understand the neurochemical and behavioral properties of the compounds of the present invention, exemplary benztropinamine analogs were evaluated for displacement of [^3H]WIN 35,428 (2β-carbomethoxy-3β-(4-fluorophenyl)tropane) binding to the DAT in rat caudate-putamen. These benztropinamine analogs were also evaluated for displacement of radiolabeled ligand binding at the serotonin (SERT) and norepinephrine (NET) transporters as well as the muscarinic m1 receptor (M1), Table 1, infra. The NET over DAT selectivity refers to the Ki ratio. […] The DAT selectivities of the analogs over these binding sites are depicted in Table 2.
[…] Binding Assay. Membranes from frozen rat brains excluding cerebellum were thawed in ice-cold buffer (10 mM Tris-HCl, 320 mM sucrose, pH 7.4) and homogenized with a Brinkman polytron in a volume of 10 ml/gm of tissue. The homogenate was centrifuged at 1,000×g for 10 min at 4° C. The resulting supernatant was then centrifuged at 10,000×g for 20 min at 4° C. The resulting pellet was resuspended in a volume of 200 mg/ml in 10 mM Tris buffer (pH 7.4). Ligand binding assays were conducted in tubes containing 0.5 ml of buffer (10 mM Tris-HCl, 5 mM MgCl2), 3 nM [^3H]pirenzepine (New England Nuclear, Boston, Mass.), and 20 mg of brain tissue. The reaction was started with the addition of the tissue and the tubes were incubated for 60 min in a 37° C. water bath. The incubation was terminated by the addition of 5 ml of ice-cold buffer (10 mM Tris-HCl, pH 7.4) and rapid filtration through Whatman GF/B glass fiber filter paper (presoaked in 0.5% polyethylenimine) using a Brandel Cell Harvester (Brandel Instruments, Gaithersburg, Md.). The filters were washed twice with 5 ml cold buffer, and transferred to scintillation vials to which absolute ethanol and Beckman Ready Safe was added. Quinuclidinyl benzilate (QNB), 100 μM final concentration, was used to determine non-specific binding. Data were analyzed by using GraphPad Prism software (San Diego, Calif.).

NET [1] = assay type: binding, rat; conditions: Ki ratio
Description: (§1) In order to understand the neurochemical and behavioral properties of the compounds of the present invention, exemplary benztropinamine analogs were evaluated for displacement of [^3H]WIN 35,428 (2β-carbomethoxy-3β-(4-fluorophenyl)tropane) binding to the DAT in rat caudate-putamen. These benztropinamine analogs were also evaluated for displacement of radiolabeled ligand binding at the serotonin (SERT) and norepinephrine (NET) transporters as well as the muscarinic m1 receptor (M1), Table 1, infra. The NET over DAT selectivity refers to the Ki ratio. When the Ki ratio is greater than 1, the compound is DAT selective. The DAT selectivities of the analogs over these binding sites are depicted in Table 2.
(§2) [^3H]Nisoxetine Binding Assay. Membranes from frozen frontal cortex dissected from male Sprague-Dawley rats (Taconic Labs, Germantown, N.Y.) were homogenized in 20 volumes (w/v) of 50 mM Tris containing 120 mM NaCl and 5 mM KCl (pH 7.4 at 25° C.), using a Brinkman Polytron (at setting 6 for 20 sec). The tissue was centrifuged at 50,000×g for 10 min at 4° C. The resulting pellet was resuspended in buffer and recentrifuged. The final pellet was resuspended in cold buffer to a concentration of 80 mg/ml (original wet weight). Ligand binding experiments were conducted in assay tubes containing 0.5 ml buffer, 0.5 nM [3H]nisoxetine (New England Nuclear, Boston, Mass.), and 8 mg frontal cortex tissue. The reaction was started with the addition of the tissue and the tubes were incubated for 60 min at 0-4° C. The incubation was terminated by rapid filtration through Whatman GF/B filters, presoaked in 0.05% polyethylenimine, using a Brandel Cell Harvester (Brandel Instruments Gaithersburg, Md.). The filters were washed twice with 5 ml cold buffer, transferred to scintillation vials to which Beckman Ready Safe was added. Nonspecific binding was determined using 1 μM desipramine. Data were analyzed using GraphPad Prism software (San Diego, Calif.).

NET [2] = molecular target: NET (Rattus norvegicus, UniProt Q63380); assay type: binding; conditions: lower affinity than 2a
Description: as §1, §2

SERT = molecular target: T2, SERT (Rattus norvegicus, UniProt P31652); assay: [3H]Citalopram binding assay; conditions: for Binding selectivity SERT/DAT: Ki ratio
T2 construct: Membranes from frozen rat midbrain were homogenized; from tissue; host or cells: frozen rat midbrain membranes
Description: as §1
[^3H]Citalopram Binding Assay. Membranes from frozen rat midbrain were homogenized in 20 volumes (w/v) of 50 mM Tris containing 120 mM NaCl and 5 mM KCl (pH 7.4 at 25° C.), using a Brinkman Polytron (at setting 6 for 20 sec). The tissue was centrifuged at 20,000×g for 10 min at 4° C. The resulting pellet was resuspended in buffer and recentrifuged. The final pellet was resuspended in cold buffer to a concentration of 15 mg/ml (original wet weight). Ligand binding experiments were conducted in assay tubes containing 0.5 ml of buffer, 1.4 nM [^3H]citalopram (New England Nuclear, Boston Mass.), and 1.5 mg midbrain tissue. The reaction was started with the addition of the tissue and the tubes were incubated for 60 min at 25° C. (room temperature). The incubation was terminated by rapid filtration through Whatman GF/B filters (presoaked in 0.3% polyethylenimine in water) using a Brandel Cell Harvester (Brandel Instruments Gaithersburg, Md.). The filters were washed twice with 5 ml cold buffer, transferred to scintillation vials to which Beckman Ready Safe was added. Nonspecific binding was determined using 10 μM fluoxetine (RBI, Natick, Mass.). Data were analyzed using GraphPad Prism software (San Diego, Calif.).

DAT = molecular target: T3, DAT (Rattus norvegicus, UniProt P23977); assay: Dopamine transporter binding assay, displacement of [3H]WIN 35,428; conditions: for Ki: rat caudate-putamen membranes, read-out: DAT [3H]WIN 35,428 Ki ± SEM
T3 construct: their brains removed to an ice-cooled dish for dissection of the caudate putamen; from tissue; host or cells: rat caudate putamen membranes (fresh homogenates)

mice = assay: Locomotor stimulant effects (activity counts per minute); assay type: in vivo
Excerpt: In contrast, 2m produced much more modest increases in activity of around 100 counts per min.

rats = assay: Cocaine drug discrimination (cocaine-like subjective effects); assay type: in vivo; conditions: rats trained to discriminate cocaine from vehicle, over the dose range tested, FIGS. 3A and 3B
Excerpt: FIG. 3A depicts % drug responding as a function of dose; FIG. 3B depicts % control response rate as a function of dose.
Rats were trained to emit one response after an injection of cocaine and a different response after injection of vehicle. Once the subjects were well trained, they act as detectors of cocaine-like subjective effects.

T2 sequence (P31652 whole entry): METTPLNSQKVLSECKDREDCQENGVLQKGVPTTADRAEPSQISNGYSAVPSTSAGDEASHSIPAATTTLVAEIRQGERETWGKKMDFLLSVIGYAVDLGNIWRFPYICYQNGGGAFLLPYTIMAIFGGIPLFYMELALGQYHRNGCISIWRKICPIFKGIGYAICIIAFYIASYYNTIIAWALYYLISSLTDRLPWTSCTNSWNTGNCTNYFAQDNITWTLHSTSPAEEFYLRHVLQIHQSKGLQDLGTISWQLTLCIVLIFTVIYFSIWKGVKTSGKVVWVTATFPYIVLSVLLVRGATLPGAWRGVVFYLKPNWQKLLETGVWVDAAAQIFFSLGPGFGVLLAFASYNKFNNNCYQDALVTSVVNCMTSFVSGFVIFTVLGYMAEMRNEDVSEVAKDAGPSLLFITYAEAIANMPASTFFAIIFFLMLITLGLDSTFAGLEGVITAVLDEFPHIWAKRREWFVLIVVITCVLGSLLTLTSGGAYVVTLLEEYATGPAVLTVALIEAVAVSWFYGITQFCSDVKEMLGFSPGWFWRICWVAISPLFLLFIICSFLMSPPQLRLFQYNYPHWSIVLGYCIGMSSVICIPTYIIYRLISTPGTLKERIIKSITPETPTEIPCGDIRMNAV
T3 sequence (P23977 whole entry): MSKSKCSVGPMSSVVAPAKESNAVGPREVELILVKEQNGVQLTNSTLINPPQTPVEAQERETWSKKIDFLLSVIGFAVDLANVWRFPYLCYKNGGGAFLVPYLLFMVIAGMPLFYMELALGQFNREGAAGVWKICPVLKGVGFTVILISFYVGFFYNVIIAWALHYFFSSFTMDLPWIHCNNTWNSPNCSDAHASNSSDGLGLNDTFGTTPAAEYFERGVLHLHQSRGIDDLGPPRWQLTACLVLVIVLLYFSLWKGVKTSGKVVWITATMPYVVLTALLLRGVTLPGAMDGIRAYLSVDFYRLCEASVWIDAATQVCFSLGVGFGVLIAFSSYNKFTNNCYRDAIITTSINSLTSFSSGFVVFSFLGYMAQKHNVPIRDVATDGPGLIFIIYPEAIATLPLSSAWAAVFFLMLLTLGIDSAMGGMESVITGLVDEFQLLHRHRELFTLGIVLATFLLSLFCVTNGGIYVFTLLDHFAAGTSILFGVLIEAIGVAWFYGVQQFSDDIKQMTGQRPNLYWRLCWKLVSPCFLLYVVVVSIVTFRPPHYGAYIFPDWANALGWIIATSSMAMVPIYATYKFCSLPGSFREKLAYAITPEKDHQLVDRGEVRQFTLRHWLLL
Sequence of NET (Rattus norvegicus, UniProt Q63380) (Q63380 1-617): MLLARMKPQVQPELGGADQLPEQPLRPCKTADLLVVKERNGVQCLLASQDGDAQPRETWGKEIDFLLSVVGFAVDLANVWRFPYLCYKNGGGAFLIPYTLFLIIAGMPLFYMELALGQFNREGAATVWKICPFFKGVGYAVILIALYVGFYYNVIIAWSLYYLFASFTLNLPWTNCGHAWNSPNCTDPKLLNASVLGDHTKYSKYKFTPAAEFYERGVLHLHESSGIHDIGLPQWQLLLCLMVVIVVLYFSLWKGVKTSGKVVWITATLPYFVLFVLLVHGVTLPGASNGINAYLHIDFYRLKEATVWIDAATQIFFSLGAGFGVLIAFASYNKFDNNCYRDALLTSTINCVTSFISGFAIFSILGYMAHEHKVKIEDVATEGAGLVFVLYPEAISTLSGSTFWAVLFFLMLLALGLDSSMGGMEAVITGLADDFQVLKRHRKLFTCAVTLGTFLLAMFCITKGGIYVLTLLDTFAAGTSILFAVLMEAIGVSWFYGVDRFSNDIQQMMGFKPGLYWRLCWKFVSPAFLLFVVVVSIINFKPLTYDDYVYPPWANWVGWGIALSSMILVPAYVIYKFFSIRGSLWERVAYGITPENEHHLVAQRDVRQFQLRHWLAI

| Structure (SMILES) | Ki (muscarinic M1 receptor) | Binding selectivity M1/DAT (muscarinic M1 receptor) | Lower binding affinity at the M1 receptor compared to 2a (muscarinic M1 receptor; lower affinity than 2a) | Binding selectivity NET/DAT (NET [1]) | Lower binding affinity at the NET compared to 2a (NET [2]) | Ki (SERT) | Binding selectivity SERT/DAT (SERT) | Lower binding affinity at the SERT compared to 2a (SERT; lower affinity than 2a) | Reduction of binding affinity at the DAT compared to 2a (DAT; lower affinity than 2a) | Ki (DAT) | Ki (muscarinic M1 receptor; rat brain membranes excluding cerebellum, read-out: M1 [3H]pirenzepine Ki ± SEM) | Ki (SERT; rat midbrain membranes, read-out: SERT [3H]citalopram Ki ± SEM) | Cocaine-like locomotor stimulant effects (mice) | Locomotor activity (mice; injected, at the most effective dose, FIG. 2) | Cocaine-like subjective effects (substitution for cocaine) (rats) |
| --- | --- | --- | --- | --- | --- | --- | --- | --- | --- | --- | --- | --- | --- | --- | --- |
| CN(C(c1ccc(F)cc1)c1ccc(F)cc1)[C@H]1C[C@H]2CC[C@@H](C1)N2C [Compound 2c] | 18.6 ± 2.48 nM | 0.2 | about 2 fold | 68 | about 5 fold | 17.2 ± 2.46 µM | 140 | about 2 fold | 11 fold | 123 ± 15.5 nM | – | – | – | – | – |
| O=C(CCN1[C@@H]2CC[C@H]1C[C@@H](NC(c1ccc(F)cc1)c1ccc(F)cc1)C2)Nc1ccccc1 [Compound 2m] | – | 551 | – | 535 and 536 | – | – | 132 | – | – | 4.61 nM | 2540 ± 124 nM | 0.608 ± 0.041 µM | lacks cocaine-like locomotor stimulant effects | around 100 counts per min | lacks cocaine-like subjective effects; also recorded: did not substitute for cocaine |

Reference: patent publication US20080279775A1, “Benztropinamine Analogs as Dopamine Uptake Inhibitors” (priority 2005, published 2008)
